Experimental data from patent US6630469B2, “5-HT7 receptor antagonists” (Bristol-Myers Squibb Company, priority 2000, dated 2003).
Values joined by “and” are separate entries in the source; they are usually repeats but may differ in a detail not shown here. Equal values may be shown once.

Target: T1, human 5-HT7 receptor (Homo sapiens, UniProt P34969)
T1 construct: expressed in transfected cells; host or cells: CHO cells
Assay: 5-HT7 Receptor Binding Assay
Conditions: membranes of CHO cells expressing human 5-HT7 receptor; 1 nM 3H-5-carboxamidotryptamine; 25° C., 60 minutes
Procedure: 5-HT7 Receptor Binding Assay
Membranes are prepared for binding using the human 5-HT7 receptor expressed in CHO cells. Cells are collected and ruptured using a dounce homogenizer. The cells are spun at 18000× g for 10 minutes and the pellet is resuspended in assay buffer, frozen in liquid nitrogen and kept at −80° C. until the day of the assay.
A total of 30 ug protein is used per well. The assay is carried out in 96-deep-well plates. The assay buffer is 50 mM HEPES. The membrane preparation is incubated at 25° C. for 60 minutes with 0.1 nM to 1000 nM test compound and 1 nM ^3H-5-carboxamidotryptamine. 10 uM serotonin is used as blocking agent to determine non-specific binding. The reaction is terminated by the addition of 1 ml of ice cold 5OmM HEPES buffer and rapid filtration through a Brandel Cell Harvester using Whatman GF/B filters. The filter pads are counted in an LKB Trilux liquid scintillation counter. IC50 values are determined using non-linear regression by Exel-fit.

T1 sequence (P34969 whole entry): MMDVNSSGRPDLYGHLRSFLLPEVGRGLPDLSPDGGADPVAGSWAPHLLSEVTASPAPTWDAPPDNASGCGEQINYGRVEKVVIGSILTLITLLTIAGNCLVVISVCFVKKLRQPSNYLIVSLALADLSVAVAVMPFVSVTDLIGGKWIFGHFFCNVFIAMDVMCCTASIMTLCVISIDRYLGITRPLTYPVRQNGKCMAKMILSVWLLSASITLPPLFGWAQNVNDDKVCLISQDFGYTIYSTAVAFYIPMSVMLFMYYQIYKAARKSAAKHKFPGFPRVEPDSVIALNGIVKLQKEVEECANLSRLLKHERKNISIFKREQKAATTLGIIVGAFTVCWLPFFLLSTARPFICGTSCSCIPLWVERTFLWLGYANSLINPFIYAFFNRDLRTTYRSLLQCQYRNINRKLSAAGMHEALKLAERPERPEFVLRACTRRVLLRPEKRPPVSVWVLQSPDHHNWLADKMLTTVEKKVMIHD

| SMILES | IC50 |
| --- | --- |
| C[C@H](Nc1nc(N)nc(NCCc2ccc(Br)cc2)n1)c1ccc([N+](=O)[O-])cc1 [Compound 39, N^2-[2-(4-Bromophenyl)ethyl]-N^4-[(1S)-1-(4-nitrophenyl)ethyl]-1,3,5-triazine-2,4,6-triamine] | 101 to 200 nM |
| C[C@H](Nc1cc(NCCc2ccc(N)cc2)ncn1)c1ccccc1 [N^4-[2-(4-Aminophenyl)ethyl]-N^6-[(1S)-1-phenylethyl]pyrimidine-4,6-diamine] | 101 to 200 nM |
| CC[C@H](Nc1nc(N)nc(NCCc2cccc(OC)c2)n1)c1ccccc1 [Compound 52, N^2-[2-(3-Methoxyphenyl)ethyl]-N^4-[(1S)-1-phenylpropyl]-1,3,5-triazine-2,4,6-triamine] | 51 to 100 nM |
| CC[C@H](Nc1nc(N)nc(NCCc2ccc(C)cc2)n1)c1ccccc1 [Compound 49, N^2-[2-(4-Methylphenyl)ethyl]-N^4-[(1S)-1-phenylpropyl]-1,3,5-triazine-2,4,6-triamine] | 51 to 100 nM |
| C[C@H](Nc1nc(N)nc(NCCc2ccccc2F)n1)c1ccccc1 [Compound 48, N^2-[2-(2-Fluorophenyl)ethyl]-N^4-[(1S)-1-phenylethyl]-1,3,5-triazine-2,4,6-triamine] | 51 to 100 nM |
| CC(Nc1nccc(NCCc2c[nH]c3ccccc23)n1)c1ccccc1 (stereo not shown) [Compound 7, N^4-[2-(1H-Indol-3-yl)ethyl]-N^2-(1-phenylethyl)pyrimidine-2,4-diamine] | 51 to 100 nM |
| Clc1ccc(CNc2ccnc(NCCc3ccccc3)n2)cc1Cl [N^4-(3,4-Dichlorophenylmethyl)-N^2-(2-phenylethyl)pyrimidine-2,4-diamine] | 101 to 200 nM |
| CC(Nc1ccnc(NCCSc2ccccc2)n1)c1ccccc1 (stereo not shown) [N^2-(2-Phenthioethyl)-N^4-(1-phenylethyl)pyrimidine-2,4-diamine] | 51 to 100 nM |
| CC[C@H](Nc1nc(N)nc(NCC(C)c2ccccc2)n1)c1ccccc1 (stereo partly drawn) [Compound 35, N^2-[(1S)-1-Phenylpropyl]-N^4-(2-phenylpropyl)-1,3,5-triazine-2,4,6-triamine] | 101 to 200 nM |
| CC(Nc1nc(N)nc(NC[C@@H]2C[C@H]2c2ccc(F)cc2)n1)c1ccccc1 (mixture of isomers) [(±)-trans-N-[2-(4-Fluoro-phenyl)-cyclopropylmethyl]-N′-(1-phenyl-ethyl)-[1,3,5]triazine-2,4,6-triamine] | ≤ 100 nM and > 50 nM |
| CC(Nc1ccnc(NCCc2cccnc2)n1)c1ccccc1 (stereo not shown) [Compound 1, N^4-(1-Phenylethyl)-N^2-[2-(3-pyridinyl)ethyl]pyrimidine-2,4-diamine] | 101 to 200 nM |
| C[C@H](Nc1nc(N)nc(NCCc2ccccc2)n1)c1cccc2ccccc12 [Compound 56, N^2-[(1S)-1-(1-Napthalenyl)ethyl]-N^4-(2-phenylethyl)-1,3,5-triazine-2,4,6-triamine] | 51 to 100 nM |
| CC[C@H](Nc1nc(N)nc(NCCc2ccccc2F)n1)c1ccccc1 [Compound 51, N^2-[2-(2-Fluorophenyl)ethyl]-N^4-[(1S)-1-phenylpropyl]-1,3,5-triazine-2,4,6-triamine] | 51 to 100 nM |
| CC(Nc1ccnc(NCCc2ccc(Br)cc2)n1)c1ccccc1 (stereo not shown) [Compound 9, N^2-[2-(4-Bromophenyl)ethyl]-N^4-(1-phenylethyl)pyrimidine-2,4-diamine] | 51 to 100 nM |
| COc1ccc(CCNc2nccc(NC(C)c3ccccc3)n2)cc1 (stereo not shown) [N^2-[2-(4-Methoxyphenyl)ethyl]-N^4-(1-phenylethyl)pyrimidine-2,4-diamine] | 101 to 200 nM |
| CC(Nc1ccnc(NC2Cc3ccccc3C2)n1)c1ccccc1 (stereo not shown) [Compound 10, N^2-(Indan-2-yl)-N4-(1-phenylethyl)pyrimidine-2,4-diamine] | 51 to 100 nM |
| CC[C@H](Nc1nc(N)nc(NCCc2ccc(Cl)c(Cl)c2)n1)c1ccccc1 [Compound 33, N^2-[2-(3,4-Dichlorophenyl)ethyl]-N^4-[(1S)-1-phenylpropyl]-1,3,5-triazine-2,4,6-triamine] | 101 to 200 nM |
| C[C@H](Nc1nc(N)nc(NCCc2ccc(Cl)cc2)n1)c1ccccc1 [Compound 50, N^2-[2-(4-Chlorophenyl)ethyl]-N^4-[(1S)-1-phenylethyl]-1,3,5-triazine-2,4,6-triamine] | 51 to 100 nM |
| c1ccc(CCNc2nccc(NCc3ccco3)n2)cc1 [Compound 2, N^4-(2-Furanylmethyl)-N^2-(2-phenylethyl)pyrimidine-2,4-diamine] | 101 to 200 nM |
| COc1cccc(CCNc2nc(N)nc(N[C@@H](C)c3ccccc3)n2)c1 [Compound 54, N^2-[2-(3-Methoxyphenyl)ethyl]-N^4-[(1S)-1-phenylethyl]-1,3,5-triazine-2,4,6-triamine] | 51 to 100 nM |
| c1ccc(OCCNc2nccc(NCc3cccnc3)n2)cc1 [Compound 20, N^2-(2-Phenoxyethyl)-N^4-(3-pyridinylmethyl)pyrimidine-2,4-diamine] | ≤ 50 nM |
| CC(Nc1ccnc(N(C)CCc2ccccc2)n1)c1ccccc1 (stereo not shown) [N^2-(Methyl)-N^2-(2-phenylethyl)-N^4-(1-phenylethyl)pyrimidine-2,4-diamine] | ≤ 50 nM |
| CC(Nc1ccnc(NCCc2ccccc2)n1)c1ccc(Cl)cc1 (stereo not shown) [N^4-[1-(4-Chlorophenyl)ethyl]-N^2-(2-phenylethyl)pyrimidine-2,4-diamine] | ≤ 50 nM |

More lines, now with the values ahead:

| IC50 | SMILES |
| --- | --- |
| ≤ 50 nM | c1ccc(CNc2ccnc(NCCOc3ccccc3)n2)cc1 [N^2-(2-Phenoxyethyl)-N^4-(phenylmethyl)pyrimidine-2,4-diamine] |
| ≤ 50 nM | Fc1ccc(C(F)(F)F)cc1CNc1ccnc(NCCOc2ccccc2)n1 [N^4-[2-Fluoro-5-(trifluoromethyl)phenylmethyl]-N^2-(2-phenoxyethyl)pyrimidine-2,4-diamine] |
| ≤ 50 nM | CC(C)c1ccc(CNc2ccnc(NCCOc3ccccc3)n2)cc1 [N^4-[4-(1-Methylethyl)phenylmethyl]-N^2-(2-phenoxyethyl)pyrimidine-2,4-diamine] |
| ≤ 50 nM | Clc1ccccc1CNc1ccnc(NCCc2ccccc2)n1 [N^4-(2-Chlorophenylmethyl)-N^2-(2-phenylethyl)pyrimidine-2,4-diamine] |
| ≤ 50 nM | CC(C)(Nc1ccnc(NCCc2ccccc2)n1)c1ccccc1 [N^4-(1-Methyl-1-phenyl)ethyl)-N^2-(2-phenylethyl)pyrimidine-2,4-diamine] |
| ≤ 50 nM | CC(Nc1ccnc(NCCc2cccs2)n1)c1ccccc1 (stereo not shown) [Compound 29, N^4-(1-Phenylethyl)-N^2-[2-(2-thienyl)ethyl]pyrimidine-2,4-diamine] |
| ≤ 50 nM | Cc1cc(N[C@@H](C)c2ccccc2)nc(NCCc2cccc(C#N)c2)n1 [N^2-[2-(3-Cyanophenyl)ethyl]-6-methyl-N^4-[(1S)-1-phenylethyl]pyrimidine-2,4-diamine] |
| ≤ 50 nM | CC(Nc1ccnc(NCCc2cccc(Cl)c2)n1)c1ccccc1 (stereo not shown) [N^2-[2-(3-Chlorophenyl)ethyl]-N^4-(1-phenylethyl)pyrimidine-2,4-diamine] |
| ≤ 50 nM | CC(Nc1ccnc(NCCc2cccc(C#N)c2)n1)c1ccccc1 (stereo not shown) [Compound 22, N^2-[2-(3-Cyanophenyl)ethyl]-N^4-(1-phenylethyl)pyrimidine-2,4-diamine] |
| ≤ 50 nM | CC(Nc1ccnc(NCCOc2ccccc2)n1)c1ccc(Cl)cc1 (stereo not shown) [N^4-[1-(4-Chlorophenyl)ethyl]-N^2-(2-phenoxyethyl)pyrimidine-2,4-diamine] |
| ≤ 50 nM | Cc1cc(N[C@@H](C)c2ccccc2)nc(NCCc2cccc(F)c2)n1 [N^2-[2-(3-Fluorophenyl)ethyl]-6-methyl-N^4-[(1S)-1-phenylethyl]pyrimidine-2,4-diamine] |
| ≤ 50 nM | Fc1ccc(CNc2ccnc(NCCOc3ccccc3)n2)cc1Cl [N^4-(3-Chloro-4-fluorophenylmethyl)-N^2-(2-phenoxyethyl)pyrimidine-2,4-diamine] |
| ≤ 50 nM | Nc1nc(NCCc2ccccc2)nc(NCc2ccccc2Cl)n1 [N^2-(2-Chlorophenylmethyl)-N^4-(2-phenylethyl)-1,3,5-triazine-2,4,6-triamine] |
| ≤ 50 nM | COc1cc(CCNc2nc(N)nc(N[C@@H](C)c3ccc([N+](=O)[O-])cc3)n2)ccc1O [Compound 80, N^2-[2-(4-Hydroxy-3-methoxyphenyl)ethyl]-N^4-[(1S)-1-(4-nitrophenyl)ethyl]-1,3,5-triazine-2,4,6-triamine] |
| ≤ 50 nM | Cc1ccc(CCNc2nc(N)nc(N[C@@H](C)c3ccccc3)n2)cc1 [Compound 72, N^2-[2-(4-Methylphenyl)ethyl]-N^4-[(1S)-1-phenylethyl]-1,3,5-triazine-2,4,6-triamine] |
| ≤ 50 nM | Cc1ccc([C@H](C)Nc2ccnc(NCCOc3ccccc3)n2)cc1 [N^4-[(1S)-1-(4-Methylphenyl)ethyl]-N^2-(2-phenoxyethyl)pyrimidine-2,4-diamine] |
| ≤ 50 nM | Cc1cccc(CNc2ccnc(NCCc3ccccc3)n2)c1 [N^4-(3-Methylphenylmethyl)-N^2-(2-phenylethyl)pyrimidine-2,4-diamine] |
| ≤ 50 nM | C[C@H](Nc1nc(N)nc(NCCc2ccccc2F)n1)c1ccc([N+](=O)[O-])cc1 [Compound 76, N^2-[2-(2-Fluorophenyl)ethyl]-N^4-[(1S)-1-(4-nitrophenyl)ethyl]-1,3,5-triazine-2,4,6-triamine] |
| ≤ 50 nM | C[C@H](Nc1ccnc(NCCc2ccccc2)n1)c1cccc2ccccc12 [Compound 24, N^4-[(1S)-1-(1-Napthalenyl)ethyl]-N^2-(2-phenylethyl)pyrimidine-2,4-diamine] |
| ≤ 50 nM | Cc1cc(N[C@@H](C)c2ccccc2)nc(NCCc2cccc(Br)c2)n1 [N^2-[2-(3-Bromophenyl)ethyl]-6-methyl-N^4-[(1S)-1-phenylethyl]pyrimidine-2,4-diamine] |
